Laboratory results taken from patent publication US9066971B2 (priority 2010, dated 2015).

Test system: mouse colon 26 cell line
Type: in vivo
Conditions: 18 mg/kg aspirin alone, tail vein, twice a week; day 23; compared to PBS alone
Procedure: The shedding microvesicles derived from E. coli, P. aeruginosa, and S. enteritidis were assayed for anticancer activity. A mouse colon 26 cell line was subcutaneously injected at a dose of 1×10^6 cells into mice, and cultured. After one week, a PBS solution containing 1 μg, or 5 μg of each of the Gram-negative bacterial cell-derived microvesicles was injected at a dose of 100 μl twice a week via the tail vein into the mice which were divided into groups, each consisting of three. On day 23 after the transplantation of cancer cells, the sizes of colon cancer tissue were monitored. The volume of cancer tissue was calculated by the equation V=l×s^2/2, wherein 1 is a length of the longest axis of a tumor and s is a length of the axis perpendicular to the longest axis.
The shedding microvesicles derived from S. aureus and Lactobacillus acidophilus were assayed for anticancer activity. […] On day 23 after the transplantation of cancer cells, the sizes of colon cancer tissue were monitored. The volume of cancer tissue was calculated by the equation V=l×s^2/2, wherein 1 is a length of the longest axis of a tumor and s is a length of the axis perpendicular to the longest axis.
A mouse colon 26 cell line was subcutaneously injected at a dose of 1×10^6 cells into mice, and cultured. […] On day 23 after the transplantation of cancer cells, the sizes of colon cancer tissue were monitored. […]

## CC(=O)Oc1ccccc1C(=O)O [aspirin]
  size of colon tumors: no differences in the size of colon tumors
